Results from article PMC6106931 (Alzheimer's Research & Therapy, 2018).

Experiment: Clinical safety, Study ALZ1005
Assay type: in vivo, human
[1] = MCI due to AD, JNJ-54861911 total, N=20
[2] = both atabecestat groups, 3 of 31 patients
[3] = preclinical AD, JNJ-54861911 total, N=11

Method: Safety and tolerability were assessed during the study by recording adverse events (AEs), clinically significant abnormalities, clinical laboratory tests, ECG, and vital signs and by performing physical, neurological, and MRI examinations. All enrolled participants were included in the safety analysis population.

## C[C@@]1(c2cc(NC(=O)c3ccc(C#N)cn3)ccc2F)C=CSC(N)=N1 [atabecestat]
[1]
  TEAE: Psoriasis: ^0 n (%)
  TEAE: Psychiatric disorders: ^2 (10.0) n (%)
  TEAE: Renal and urinary disorders: ^1 (5.0) n (%)
  TEAE: Renal colic: ^1 (5.0) n (%)
  TEAE: Reproductive system and breast disorders: ^1 (5.0) n (%)
  TEAE: Skin and subcutaneous tissue disorders: ^2 (10.0) n (%)
  TEAE: Somnolence: ^0 n (%)
  TEAE: Syncope: ^0 n (%)
  TEAE: Urticaria: ^0 n (%)
  TEAE: Vascular disorders: ^0 n (%)
  TEAE: Vulvovaginal candidiasis: ^1 (5.0) n (%)
  TEAE: Vulvovaginal pruritus: ^1 (5.0) n (%)
Both atabecestat groups, 2 patients
  TEAE accidental overdose: 6.5%
[2]
  TEAE psychiatric disorders: 9.7%
  TEAE skin and subcutaneous tissue disorders: 9.7%
Both atabecestat groups, 4 patients
  TEAE post-lumbar puncture syndrome: 12.9%
Both atabecestat groups, 5 of 31 patients
  TEAE SOC injury, poisoning, and procedural complications: 16.1%
Both studies
  changes from baseline in clinical laboratory analytes, liver function tests, vital signs, neurologic and physical examinations: no clinically significant trends
  deaths or TEAEs leading to discontinuation: no deaths or TEAEs leading to discontinuation
Early AD population
  ECG parameters, mean and median changes over time from predose: no treatment- or dose-related changes
Preclinical AD, 10 mg, N=5
  Subjects with any TEAE: ^1 (20.0%) n (%)
  TEAE: Accidental overdose: ^0 n (%)
  TEAE: Anxiety: ^0 n (%)
  TEAE: Bladder cancer: ^0 n (%)
  TEAE: Conjunctivitis: ^0 n (%)
  TEAE: Dementia Alzheimer’s type: ^0 n (%)
  TEAE: Depressed mood: ^0 n (%)
  TEAE: Dermatitis allergic: ^0 n (%)
  TEAE: Dizziness: ^0 n (%)
  TEAE: Eczema vesicular: ^0 n (%)
  TEAE: Fatigue: ^0 n (%)
  TEAE: Gastrointestinal disorders: ^0 n (%)
  TEAE: General disorders and administration site conditions: ^0 n (%)
  TEAE: Headache: ^0 n (%)
  TEAE: Hypertension: ^1 (20.^0) n (%)
  TEAE: Infections and infestations: ^0 n (%)
  TEAE: Injury, poisoning and procedural complications: ^0 n (%)
  TEAE: Insomnia: ^0 n (%)
  TEAE: Irritability: ^0 n (%)
  TEAE: Musculoskeletal and connective tissue disorders: ^0 n (%)
  TEAE: Nasopharyngitis: ^0 n (%)
  TEAE: Nausea: ^0 n (%)
  TEAE: Neck pain: ^0 n (%)
  TEAE: Neoplasms benign, malignant and unspecified: ^0 n (%)
  TEAE: Nervous system disorders: ^0 n (%)
  TEAE: Post lumbar puncture syndrome: ^0 n (%)
  TEAE: Psoriasis: ^0 n (%)
  TEAE: Psychiatric disorders: ^0 n (%)
  TEAE: Renal and urinary disorders: ^0 n (%)
  TEAE: Renal colic: ^0 n (%)
  TEAE: Reproductive system and breast disorders: ^0 n (%)
  TEAE: Skin and subcutaneous tissue disorders: ^0 n (%)
  TEAE: Somnolence: ^0 n (%)
  TEAE: Syncope: ^0 n (%)
  TEAE: Urticaria: ^0 n (%)
  TEAE: Vascular disorders: ^1 (20.0) n (%)
  TEAE: Vulvovaginal candidiasis: ^0 n (%)
  TEAE: Vulvovaginal pruritus: ^0 n (%)
Preclinical AD, 50 mg, N=6
  Subjects with any TEAE: ^2 (33.3) n (%)
  TEAE: Accidental overdose: ^0 n (%)
  TEAE: Anxiety: ^0 n (%)
  TEAE: Bladder cancer: ^0 n (%)
  TEAE: Conjunctivitis: ^0 n (%)
  TEAE: Dementia Alzheimer’s type: ^0 n (%)
  TEAE: Depressed mood: ^0 n (%)
  TEAE: Dermatitis allergic: ^0 n (%)
  TEAE: Dizziness: ^0 n (%)
  TEAE: Eczema vesicular: ^0 n (%)
  TEAE: Fatigue: ^1 (16.7^) n (%)
  TEAE: Gastrointestinal disorders: ^0 n (%)
  TEAE: General disorders and administration site conditions: ^1 (16.7) n (%)
  TEAE: Headache: ^0 n (%)
  TEAE: Hypertension: ^0 n (%)
  TEAE: Infections and infestations: ^0 n (%)
  TEAE: Injury, poisoning and procedural complications: ^1 (16.7) n (%)
  TEAE: Insomnia: ^1 (16.^7) n (%)
  TEAE: Irritability: ^0 n (%)
  TEAE: Musculoskeletal and connective tissue disorders: ^0 n (%)
  TEAE: Nasopharyngitis: ^0 n (%)
  TEAE: Nausea: ^0 n (%)
  TEAE: Neck pain: ^0 n (%)
  TEAE: Neoplasms benign, malignant and unspecified: ^0 n (%)
  TEAE: Nervous system disorders: ^0 n (%)
  TEAE: Post lumbar puncture syndrome: ^1 (16.7^) n (%)
  TEAE: Psoriasis: ^1 (16.^7) n (%)
  TEAE: Psychiatric disorders: ^1 (16.^7) n (%)
  TEAE: Renal and urinary disorders: ^0 n (%)
  TEAE: Renal colic: ^0 n (%)
  TEAE: Reproductive system and breast disorders: ^0 n (%)
  TEAE: Skin and subcutaneous tissue disorders: ^1 (16.^7) n (%)
  TEAE: Somnolence: ^0 n (%)
  TEAE: Syncope: ^0 n (%)
  TEAE: Urticaria: ^1 (16.^7) n (%)
  TEAE: Vascular disorders: ^0 n (%)
  TEAE: Vulvovaginal candidiasis: ^0 n (%)
  TEAE: Vulvovaginal pruritus: ^0 n (%)
[3]
  Subjects with any TEAE: ^3 (27.3) n (%)
  TEAE: Fatigue: ^1 (9.1) n (%)
  TEAE: General disorders and administration site conditions: ^1 (9.1) n (%)
  TEAE: Hypertension: ^1 (9.1) n (%)
  TEAE: Injury, poisoning and procedural complications: ^1 (9.1) n (%)
  TEAE: Insomnia: ^1 (9.1) n (%)
  TEAE: Nervous system disorders: ^0 n (%)
  TEAE: Post lumbar puncture syndrome: ^1 (9.1) n (%)
  TEAE: Psoriasis: ^1 (9.1) n (%)
  TEAE: Psychiatric disorders: ^1 (9.1) n (%)
  TEAE: Skin and subcutaneous tissue disorders: ^1 (9.1) n (%)
  TEAE: Somnolence: ^0 n (%)
  TEAE: Urticaria: ^1 (9.1) n (%)
  TEAE: Vascular disorders: ^1 (9.1) n (%)
